In ChEMBL document CHEMBL4699579, “A Peptidyl Inhibitor that Blocks Calcineurin-NFAT Interaction and Prevents Acute Lung Injury” (J Med Chem, 2020):
Calls of active or inactive are those of the source. No cut-off for these calls is given here.

What was measured:
[1] = Binding affinity to GST-tagged Calcineurin (unknown origin) incubated for 1 hr by fluorescence polarization assay; parameters: species or system Homo sapiens
[2] = (§1) Binding affinity to GST-tagged Calcineurin (unknown origin) assessed as reduction in binding of peptide-14 incubated for 1 hr by fluorescence polarization assay; parameters: species or system Homo sapiens
Homo sapiens = organism: Homo sapiens; assay: as §1
[3] = Stability in 25% human serum assessed as compound degradation at 5 uM at 37 degC incubated for 24 hrs by HPLC analysis; format: ADME, cell-free; settings: 25% human serum, read-out: Drug degradation
[4] = Solubility in PBS containing 5% DMSO at pH 7.4 incubated for 1 hr; format: physicochemical
[5] = Drug uptake in human HeLa cells at 5 uM incubated for 2 hrs using naphthofluorescein-labelled compound by live-cell confocal microscopic analysis; format: ADME, cell-based
HeLa = assay: Toxicity in human HeLa cells assessed as reduction in cell viability up to 25 uM incubated for 72 hrs by MTT assay; format: cell-based
NCI-H441 = assay: Toxicity in human NCI-H441 cells assessed as reduction in cell viability up to 25 uM incubated for 72 hrs by MTT assay; format: cell-based; settings: nci-h441, 72 h
Macrophage [6] = assay: Inhibition of calcineurin-NFATc3 interaction in mouse lung macrophages assessed as reduction in LPS-induced TNFalpha production at 0.1 to 10 uM pre-incubated 4 hrs before LPS stimulation for 8 hrs by ELISA; format: tissue-based; settings: dose microM 0.1-10, time 12.0 hrs
Macrophage [7] = assay: Inhibition of calcineurin-NFATc3 interaction in mouse lung macrophages assessed as reduction in LPS-induced IL6 production at 0.1 to 10 uM pre-incubated 4 hrs before LPS stimulation for 8 hrs by ELISA; format: tissue-based; settings: dose microM 0.1-10, time 12.0 hrs
[8] = Tmax in BALF of C57BL/6 mouse at 5 mg/kg using TMR-labeled compound instilled into both nostrils by flow cytometry; format: ADME, organism-based, Bronchoalveolar lavage; settings: inhaled or intranasal
[9] = Drug localization in total leukocytes of C57BL/6 mouse assessed as TMR-positive total leukocytes at 5 mg/kg using TMR-labeled compound instilled into both nostrils measured after 4 hrs by flow cytometry; format: ADME, organism-based, Leucocyte; settings: in vivo, inhaled_or_intranasal
[10] = Drug localization in total leukocytes of C57BL/6 mouse assessed as TMR-positive total leukocytes at 5 mg/kg using TMR-labeled compound instilled into both nostrils measured after 24 hrs by flow cytometry; format: ADME, organism-based, Leucocyte; settings: in vivo, inhaled_or_intranasal
[11] = Drug localization in plasma of C57BL/6 mouse at 5 mg/kg using TMR-labeled compound instilled into both nostrils measured after 24 hrs by flow cytometry; format: ADME, organism-based; settings: in vivo, inhaled_or_intranasal
[12] = Toxicity in of C57BL/6 mouse assessed as effect on lactate dehydrogenase level in total lung cells at 5 mg/kg using TMR-labeled compound instilled into both nostrils measured after 24 hrs by Cyto-tox 96 assay; format: organism-based; settings: in vivo, inhaled_or_intranasal
[13] = Toxicity in of C57BL/6 mouse assessed as induction of neutrophil infiltration at 5 mg/kg using TMR-labeled compound instilled into both nostrils measured after 24 hrs by Hema-3.0 staining based assay; format: organism-based; settings: in vivo, inhaled_or_intranasal
Mus musculus [14] = assay: Anti-inflammatory activity in BALB/c mouse model of LPS-induced ALI assessed as reduction in LPS-induced TNFalpha in BALF at 5 mg/kg dosed via intranasal insuffIation pre-treated 2 hrs before LPS stimulation for 16 hrs; format: functional, organism-based; settings: dose mg/kg 5-10, time 18.0 hrs
Mus musculus [15] = assay: Anti-inflammatory activity in BALB/c mouse model of LPS-induced ALI assessed as reduction in LPS-induced IL6 in BALF at 5 mg/kg dosed via intranasal insuffIation pre-treated 2 hrs before LPS stimulation for 16 hrs; format: functional, organism-based; settings: dose mg/kg 5-10, time 18.0 hrs
Mus musculus [16] = assay: Anti-inflammatory activity in BALB/c mouse model of LPS-induced ALI assessed as reduction in LPS-induced extravasated BALF protein in BALF at 5 mg/kg dosed via intranasal insuffIation pre-treated 2 hrs before LPS stimulation for 16 hrs; format: functional, organism-based; settings: dose mg/kg 5-10, time 18.0 hrs
Mus musculus [17] = assay: Anti-inflammatory activity in BALB/c mouse model of LPS-induced ALI assessed as reduction in LPS-induced TNFalpha in plasma at 5 mg/kg dosed via intranasal insuffIation pre-treated 2 hrs before LPS stimulation for 16 hrs; format: functional, organism-based; settings: dose mg/kg 5-10, time 18.0 hrs
Mus musculus [18] = assay: Anti-inflammatory activity in BALB/c mouse model of LPS-induced ALI assessed as reduction in LPS-induced IL6 in plasma at 5 mg/kg dosed via intranasal insuffIation pre-treated 2 hrs before LPS stimulation for 16 hrs; format: functional, organism-based; settings: dose mg/kg 5-10, time 18.0 hrs
Mus musculus [19] = assay: Anti-inflammatory activity in BALB/c mouse model of LPS-induced ALI assessed as reduction in lung wet-to-dry ratios at 5 mg/kg dosed via intranasal insuffIation pre-treated 2 hrs before LPS stimulation for 16 hrs; format: functional, organism-based; settings: dose mg/kg 5-10, time 18.0 hrs
Mus musculus [20] = assay: Anti-inflammatory activity in BALB/c mouse model of LPS-induced ALI assessed as reduction in number of neutrophils BALF at 5 mg/kg dosed via intranasal insuffIation pre-treated 2 hrs before LPS stimulation for 16 hrs; format: functional, organism-based; settings: dose mg/kg 5-10, time 18.0 hrs
Mus musculus [21] = assay: Anti-inflammatory activity in BALB/c mouse model of LPS-induced ALI assessed as reduction in LPS-induced TNFalpha in BALF at 10 mg/kg dosed via intranasal insuffIation pre-treated 2 hrs before LPS stimulation for 16 hrs; format: functional, organism-based; settings: time 18.0 hrs
Mus musculus [22] = assay: Anti-inflammatory activity in BALB/c mouse model of LPS-induced ALI assessed as reduction in LPS-induced IL6 in BALF at 10 mg/kg dosed via intranasal insuffIation pre-treated 2 hrs before LPS stimulation for 16 hrs; format: functional, organism-based; settings: time 18.0 hrs
Mus musculus [23] = assay: Anti-inflammatory activity in BALB/c mouse model of LPS-induced ALI assessed as reduction in LPS-induced extravasated BALF protein in BALF at 10 mg/kg dosed via intranasal insuffIation pre-treated 2 hrs before LPS stimulation for 16 hrs; format: functional, organism-based; settings: time 18.0 hrs
Mus musculus [24] = assay: Anti-inflammatory activity in BALB/c mouse model of LPS-induced ALI assessed as reduction in LPS-induced TNFalpha in plasma at 10 mg/kg dosed via intranasal insuffIation pre-treated 2 hrs before LPS stimulation for 16 hrs; format: functional, organism-based; settings: time 18.0 hrs
Mus musculus [25] = assay: Anti-inflammatory activity in BALB/c mouse model of LPS-induced ALI assessed as reduction in lung wet-to-dry ratios at 10 mg/kg dosed via intranasal insuffIation pre-treated 2 hrs before LPS stimulation for 16 hrs; format: functional, organism-based; settings: time 18.0 hrs
Mus musculus [26] = assay: Anti-inflammatory activity in BALB/c mouse model of LPS-induced ALI assessed as reduction in number of neutrophils BALF at 10 mg/kg dosed via intranasal insuffIation pre-treated 2 hrs before LPS stimulation for 16 hrs; format: functional, organism-based; settings: time 18.0 hrs
[27] = Toxicity in C57BL/6 mouse assessed as effect on physical appearance at 50 mg/kg, ip; format: organism-based; settings: in vivo
[28] = Toxicity in C57BL/6 mouse assessed as effect on body temperature at 50 mg/kg, ip; format: organism-based; settings: in vivo
[29] = Toxicity in C57BL/6 mouse assessed as effect on self grooming at 50 mg/kg, ip; format: organism-based; settings: in vivo
[30] = Toxicity in C57BL/6 mouse assessed as effect on respiratory function measured by pulmonary arterial oxygen saturation at 50 mg/kg, ip; format: organism-based; settings: in vivo
[31] = Toxicity in C57BL/6 mouse assessed as induction of body weight loss at 50 mg/kg, ip measured during 1 weeks; format: organism-based; settings: in vivo, 168 h
[32] = Toxicity in C57BL/6 mouse assessed as efect on animal growth rates at 50 mg/kg, ip measured during 1 weeks; format: organism-based; settings: in vivo, 168 h
[33] = Toxicity in C57BL/6 mouse assessed as induction of body weight loss at 10 mg/kg dosed via intranasal insuffIation measured during 1 weeks; format: organism-based; settings: in vivo, inhaled_or_intranasal, 168 h
[34] = Toxicity in C57BL/6 mouse assessed as effect on animal growth rates at 10 mg/kg dosed via intranasal insuffIation measured during 1 weeks; format: organism-based; settings: in vivo, inhaled_or_intranasal, 168 h
[35] = Toxicity in mouse lung macrophages cells assessed as reduction in cell viability up to 25 uM incubated for 72 hrs by MTT assay; format: tissue-based; settings: macrophage
Macrophage [36] = assay: Inhibition of calcineurin-NFATc3 interaction in mouse bone marrow-derived macrophages assessed as reduction in LPS-induced NFATc3 nuclear translocation at 1 uM pre-incubated before LPS stimulation for 1 hr using biotinylated compound by immunofluorescence staining assay

Kd [1]: 0.075 µM
IC50 [2]: 0.63 µM
inhibition (Homo sapiens): Dose-dependent effect
metabolised at 24 h, 5 µM [3]: < 10%
solubility kinetic at 1 h [4]: ≥ 100 µM
Drug uptake [5]: Active
Tmax [8]: 2 h
Drug uptake [9]: 80%
Drug uptake [10]: Not Active
Drug uptake [11]: Not Active
SMILES: CC[C@H](C)[C@H](NC(=O)[C@@H](NC(=O)c1cccc(Cl)c1Cl)C(C)(C)C)C(=O)N[C@H](C(=O)N[C@H](C(=O)N[C@H](C(=O)N[C@@H](CCC(N)=O)C(=O)N[C@@H](Cc1cnc[nH]1)C(=O)N[C@@H](CC(C)C)C(=O)N[C@@H](CO)C(=O)NCCC(=O)N[C@@H](CCCCNC(=O)CC[C@@H]1NC(=O)[C@@H](CCCNC(=N)N)NC(=O)[C@H](CCCNC(=N)N)NC(=O)[C@@H](CCCNC(=N)N)NC(=O)[C@H](CCCNC(=N)N)NC(=O)[C@H](Cc2ccc3ccccc3c2)NC(=O)[C@@H](Cc2ccccc2)NC1=O)C(N)=O)[C@H](C)O)[C@@H](C)CC)C(C)(C)C
Activity (HeLa): Non-Toxic
Activity (NCI-H441): Non-Toxic
inhibition (Macrophage [6]; DISRUPTING AGENT): Dose-dependent effect
inhibition (Macrophage [6]): 17%
inhibition (Macrophage [7]; DISRUPTING AGENT): Dose-dependent effect
inhibition (Macrophage [7]): 22%
Activity [12]: Non-Toxic
Activity [13]: Non-Toxic
Activity (Mus musculus [14]): inactive
Activity (Mus musculus [15]): inactive
Activity (Mus musculus [16]): inactive
Activity (Mus musculus [17]): inactive
Activity (Mus musculus [18]): inactive
Activity (Mus musculus [19]): inactive
Activity (Mus musculus [20]): inactive
Activity (Mus musculus [21]): Active
Activity (Mus musculus [22]): Active
Activity (Mus musculus [23]): Active
Activity (Mus musculus [24]): Active
Activity (Mus musculus [25]): Active
Activity (Mus musculus [26]): Active
Activity [27]: Non-Toxic
Activity [28]: Non-Toxic
Activity [29]: Non-Toxic
Activity [30]: Non-Toxic
Activity [31]: Non-Toxic
Activity [32]: Non-Toxic
Activity [33]: Non-Toxic
Activity [34]: Non-Toxic
Activity [35]: Non-Toxic
inhibition (Macrophage [36]): Active
